Tests used:
[1] = Positive inotropic activity in perfused rabbit left atrium assessed as increase in stroke volume at 10 uM; format: functional, Oryctolagus cuniculus, Cardiac atrium
[2] = Chronotropic activity in perfused rabbit left atrium assessed as change in heart rate (RVB = 92.52 +/- 017 beats/mins); format: tissue-based, Oryctolagus cuniculus, Cardiac atrium
[3] = organism: Oryctolagus cuniculus; experiment: Positive inotropic activity in perfused rabbit left atrium assessed as increase in stroke volume; format: functional, tissue-based; settings: Cardiac atrium
[4] = Chronotropic activity in perfused rabbit left atrium assessed as change in heart rate (RVB = 102.31 +/- 0.07 beats/mins); format: tissue-based, Oryctolagus cuniculus, Cardiac atrium
[5] = Chronotropic activity in perfused rabbit left atrium assessed as change in heart rate (RVB = 105.33 +/- 0.12 beats/mins); format: tissue-based, Oryctolagus cuniculus, Cardiac atrium
[6] = Chronotropic activity in perfused rabbit left atrium assessed as change in heart rate (RVB = 89.51 +/- 0.09 beats/mins); format: tissue-based, Oryctolagus cuniculus, Cardiac atrium

SMILES | Activity [1] | also measured
COc1ccc(CN2CCCN(CC(=O)Nc3ccc4c(c3)OCC(=O)N4)CC2)cc1 | 3.22% | Activity [2]: 89.37 bpm
O=C(CN1CCCN(Cc2ccccc2Br)CC1)Nc1ccc2c(c1)OCC(=O)N2 | 7.68% | Activity [3]: Dose-dependent effect; Activity [4]: 98.64 bpm
Cc1[nH]c(=O)c(C#N)cc1-c1ccncc1 [MILRINONE] | 2.38% | 
COc1cccc(CN2CCN(CC(=O)Nc3ccc4c(c3)OCC(=O)N4)CC2)c1 | 3.96% | 
O=C(CN1CCCN(Cc2ccccc2F)CC1)Nc1ccc2c(c1)OCC(=O)N2 | 6.05% | Activity [5]: 102.88 bpm
COc1cc(CN2CCCN(CC(=O)Nc3ccc4c(c3)OCC(=O)N4)CC2)ccc1OCc1ccc(Cl)cc1 | 2.87% | Activity [6]: 80.02 bpm
